Assay results as given in US10100056B2, “SHIP1 modulators and methods related thereto” (Aquinox Pharmaceuticals (Canada) Inc., priority 2013, dated 2018).

Assays:
[1] = test system: Akt phosphorylation in Molt-4 (PTEN-/SHIP1+) cells; assay: Akt phosphorylation in lymphocytes (Western blot, IGF-1 stimulated); assay type: cell-based; parameters: key: +: inhibits Akt phosphorylation at 30 μM; −: no effect on Akt phosphorylation at 30 μM; settings: 30 μM; Molt-4 (SHIP1+) cells, IGF-1 100 ng/mL
Experimental: Molt-4 (PTEN-/SHIP1+) cells are starved in serum free RPMI for overnight. In a 15 mL conical tube, 2-3 million serum starved cells (1 million cells per mL) are treated with various concentrations of test compound ([…]) for 30 min at 37° C. followed by stimulation with 100 ng/mL of IGF-1 for 1 hour at 37° C. After stimulation, cells are washed once with ice-cold DPBS and lysed with Lysis Buffer (20 mM Tris-HCl, pH 7.5, 140 mM NaCl, 1% NP-40, Complete Mini Protease Inhibitor Cocktail, 10 mM NaF, 1 mM Na3VO4, 1 mM β-glycerolphosphate) on ice for 30 min with vortexing every 10 min. Samples are then centrifuged at 13,000 rpm for 20 min, and supernatants are collected as total cell lysate samples. Protein concentration is determined using bicinchonic acid assay, and about 15 μg of total protein from each sample is loaded and separated on a 4-12% Tris-Glycine gel. After SDS-PAGE, proteins are transferred from the gel to a nitrocellulose membrane. The membrane is blocked in 5% BSA in PBS containing 0.1% Tween-20 (PBS-T) for 1 hour at room temperature before probing with primary antibodies for overnight at 4° C. The following antibodies are used: mouse anti-SHIP1 (1:500 dilution; Santa Cruz, Calif., USA), rabbit anti-phospho-Akt (Ser473) (1:1000 dilution; Cell Signaling Technologies, MA, USA), rabbit anti-Akt (1:1000; Cell Signaling Technologies, MA, USA), and rabbit anti-actin (1:2000; Cell Signaling Technologies, MA, USA). The membrane is then incubated with goat anti-rabbit or anti-mouse secondary antibodies (1:3000) for 1 hour at room temperature. Target proteins on the membrane are detected with ECL solution and exposed on a film.

His-hSHIP1 enzyme = molecular target: T1, His-hSHIP1 enzyme (Homo sapiens, UniProt Q92835); assay: His-hSHIP1 activity (phosphatase assay, IP4 substrate, Biomol Green); assay type: biochemical; parameters: key to Scoring, Approach 2 (Initial velocity Ratio): +++: higher than reference or reference - 15%; ++: reference - 16% to reference - 30%; +: reference - 31% or lower; −: inhibitor; settings: second approach: ratio of initial velocities IP4 25/250 μM compared with reference compound; values without asterisk
T1 construct: His
T1 sequence (Q92835 1-1189): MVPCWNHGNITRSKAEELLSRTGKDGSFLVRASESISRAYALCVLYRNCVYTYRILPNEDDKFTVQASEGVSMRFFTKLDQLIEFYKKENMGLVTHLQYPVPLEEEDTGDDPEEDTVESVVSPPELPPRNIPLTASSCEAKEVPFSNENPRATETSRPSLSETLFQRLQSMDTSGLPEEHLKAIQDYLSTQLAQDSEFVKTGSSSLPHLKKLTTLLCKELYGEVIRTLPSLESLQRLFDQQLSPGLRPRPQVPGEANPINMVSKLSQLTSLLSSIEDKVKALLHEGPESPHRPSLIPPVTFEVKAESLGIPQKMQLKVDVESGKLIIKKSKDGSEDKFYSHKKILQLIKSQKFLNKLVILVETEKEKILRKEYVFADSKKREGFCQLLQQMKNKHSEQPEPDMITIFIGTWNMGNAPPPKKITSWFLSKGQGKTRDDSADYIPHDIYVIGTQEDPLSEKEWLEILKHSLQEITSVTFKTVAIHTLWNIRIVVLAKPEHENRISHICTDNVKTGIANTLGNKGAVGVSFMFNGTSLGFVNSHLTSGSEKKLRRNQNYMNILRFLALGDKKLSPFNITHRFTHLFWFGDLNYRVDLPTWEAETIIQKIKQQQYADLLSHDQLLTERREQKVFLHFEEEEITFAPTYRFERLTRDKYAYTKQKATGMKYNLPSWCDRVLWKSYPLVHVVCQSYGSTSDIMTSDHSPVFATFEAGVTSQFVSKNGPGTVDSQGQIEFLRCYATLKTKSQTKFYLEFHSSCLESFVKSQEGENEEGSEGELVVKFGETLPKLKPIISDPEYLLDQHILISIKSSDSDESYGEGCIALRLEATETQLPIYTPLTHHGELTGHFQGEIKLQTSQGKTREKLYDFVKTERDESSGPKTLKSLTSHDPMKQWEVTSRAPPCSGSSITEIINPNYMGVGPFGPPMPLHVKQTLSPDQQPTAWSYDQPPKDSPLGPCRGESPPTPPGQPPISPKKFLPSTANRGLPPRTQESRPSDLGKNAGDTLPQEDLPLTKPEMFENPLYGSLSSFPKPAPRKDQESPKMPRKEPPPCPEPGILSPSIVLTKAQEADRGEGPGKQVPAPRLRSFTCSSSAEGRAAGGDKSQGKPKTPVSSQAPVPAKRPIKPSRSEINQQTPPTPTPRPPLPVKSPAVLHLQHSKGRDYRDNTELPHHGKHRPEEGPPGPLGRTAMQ
Experimental: Test compounds are dissolved in 95% ethanol to form stock solutions. Before screening, the stock solutions are diluted with Phosphatase Assay Buffer (20 mM Tris-HCL, 10 mM MgCl2 pH 7.5, 0.02% Tween 20) to form working assay solutions that contain 10% ethanol. The assay is carried out on 96-well microtiter plates using a modified procedure of that reported by Ong et al., Blood 110, 1942-1949, 2007 and Yang et al., Org Lett 7, 1073-1076, 2005, both of which references are incorporated herein by reference in their entirety.
Data were generated by one of two variant methods. Test compounds are screened by one of two approaches described as follows. In the first approach, each reaction contains 5 μL of His-hSHIP1 enzyme (5-20 ng), 10 μL of the substrate, 1,3,4,5-inositol tetrakisphosphate (IP4; 50 μM final), 5 μL of Phosphatase Assay Buffer, and 5 µL of test compound at various concentrations in 10% ethanol (0-300 μM final). Control blanks are also prepared by replacing His-hSHIP1 enzyme, IP4, or test compounds with Phosphatase Assay Buffer. After adding the reaction components in a 96-well microtiter plate on ice, the reaction is mixed by briefly shaking the plate vigorously. The reaction is then incubated at 37° C. for 15 min with gentle shaking followed by addition of 100 μL of Biomol Green Reagent (BIOMOL, PA, USA) to terminate the reaction. The free phosphate released from IP4 by His-hSHIP1 binds to the Biomol Green Reagent, which turns the dye to green color. After incubating the mixture for 20 min at room temperature for color development, the absorbance is read with SpectraMax Plus 96-well plate reader (Molecular Devices, Sunnyvale, Calif., USA) at a wavelength of 650 nm.
In the second approach, a master mix is prepared that contains 50 μL of His-hSHIP1 enzyme (0.4-1.6 ng/μL final), 25 μL of the substrate, IP4 (25 or 250 μM final), and 50 μL of test compound in 3.3% ethanol (100 μL final). Control blanks are also prepared by replacing His-hSHIP1 enzyme, IP4, or test compounds with Phosphate Assay Buffer. […] Each reaction component is preincubated at 37° C. for 30 min before adding to a 96-well microtiter plate. The master mix is then incubated at 37° C. At time 0, 20, and 30 min, 25 μL of the master mix is removed and transferred to a new 96-well microtiter plate, to which 100 μL of Biomol Green Reagent is added to stop the reaction. After incubating the mixture for 20 min at room temperature for color development, the absorbance is read with SpectraMax Plus 96-well plate reader at a wavelength of 650 nm. Phosphate released is plotted against time to calculate the initial velocities (i.e., slope of the graph) at each IP4 concentration. The initial velocities are baseline corrected and the ratio of initial velocities (IP425/IP4250) is calculated and used to rate the test compounds.

SMILES | Molt-4 (SHIP+): inhibition of Akt phosphorylation [1] | Scoring, Approach 2 (Initial velocity Ratio) (His-hSHIP1 enzyme)
C=C1CC[C@H]2[C@H](O)[C@@H]([C@@]3(C)CC[C@H](O)C[C@@H]3CCN3CCOCC3)CC[C@]12C [Cpd. No. 46, (3aR,4R,5R,7aS)-5-((1S,2S,4S)-4-hydroxy-1-methyl-2-(2-morpholinoethyl)cyclohexyl)-7a-methyl-1-methyleneoctahydro-1H-inden-4-ol] | + | ++
C=C1CC[C@H]2[C@H](Cn3cncn3)[C@@H]([C@@]3(C)CC[C@H](O)C[C@@H]3CO)CC[C@]12C [Cpd. No. 27, (1S,3S,4R)-4-((3aS,4R,5S,7aS)-4-((1H-1,2,4-triazol-1-yl)methyl)-7a-methyl-1-methyleneoctahydro-1H-inden-5-yl)-3-(hydroxymethyl)-4-methylcyclohexanol] | − | +
C=C1CC[C@H]2[C@H](CNCc3ccc(OC)cc3)[C@@H]([C@@]3(C)CC[C@H](O)C[C@@H]3CO)CC[C@]12C [Cpd. No. 18, (1S,3S,4R)-3-(hydroxymethyl)-4-((3aS,4R,5S,7aS)-4-((4-methoxybenzylamino)methyl)-7a-methyl-1-methyleneoctahydro-1H-inden-5-yl)-4-methylcyclohexanol] | + | +
C=C1CC[C@H]2[C@H](CNCc3ccc4c(c3)OC(F)(F)O4)[C@@H]([C@@]3(C)CC[C@H](O)C[C@@H]3CO)CC[C@]12C [Cpd. No. 37, (1S,3S,4R)-4-((3aS,4R,5S,7aS)-4-(((2,2-difluorobenzo[d][1,3]dioxol-5-yl)methylamino)methyl)-7a-methyl-1-methyleneoctahydro-1H-inden-5-yl)-3-(hydroxymethyl)-4-methylcyclohexanol] |  | ++
C=C1CC[C@H]2[C@H](CNC(=O)NCc3ccccc3)[C@@H]([C@@]3(C)CC[C@H](O)C[C@@H]3CO)CC[C@]12C [Cpd. No. 91, 1-benzyl-3-(((3aS,4R,5S,7aS)-5-((1R,2S,4S)-4-hydroxy-2-(hydroxymethyl)-1-methylcyclohexyl)-7a-methyl-1-methyleneoctahydro-1H-inden-4-yl)methyl)urea] |  | +
CC1(C)C2=C(C[C@H]1O)[C@H](CO)[C@@H]([C@@]1(C)CC[C@H](O)C[C@@H]1CO)CC2 [Cpd. No. 66, (2R,4R,5S)-5-((1R,2S,4S)-4-hydroxy-2-(hydroxymethyl)-1-methylcyclohexyl)-4-(hydroxymethyl)-1,1-dimethyl-2,3,4,5,6,7-hexahydro-1H-inden-2-ol] |  | +
C=C1CC[C@H]2[C@H](CN)[C@@H]([C@@]3(C)CC[C@H](O)C[C@@H]3CN)CC[C@]12C [Cpd. No. 47, (1S,3S,4R)-3-(aminomethyl)-4-((3aS,4R,5S,7aS)-4-(aminomethyl)-7a-methyl-1-methyleneoctahydro-1H-inden-5-yl)-4-methylcyclohexanol] |  | +
CC1(C)CCC2=C1CC[C@H]([C@@]1(C)CC[C@H](O)C[C@@H]1CO)[C@H]2CNC(=N)N.Cl [Cpd. No. 1, 1-(((4R,5S)-5-((1R,2S,4S)-4-hydroxy-2-(hydroxymethyl)-1-methylcyclohexyl)-1,1-dimethyl-2,3,4,5,6,7-hexahydro-1H-inden-4-yl)methyl)guanidine hydrochloride] | + | ++
